Values of other authors in patent US20070275934A1, “Treatment of pancreatic cancer with active vitamin d compounds in combination with other treatments” (priority 2004, published 2007).

Test system: patients with refractory malignancies
Details: weekly HDPA, Beer et al. 2001

Mean peak calcitriol levels: within the therapeutic range
SMILES: C=C1/C(=C\C=C2/CCC[C@]3(C)[C@@H]([C@H](C)CCCC(C)(C)O)CC[C@@H]23)C[C@@H](O)C[C@@H]1O [calcitriol, 1α,25-dihydroxyvitamin D3]
Dose-limiting toxicity: no dose-limiting toxicity
